In patent publication US20240067677A1, “Interference Peptides As Inhibitors Of Interactions Related To Ampar Endocytosis” (priority 2020, published 2024):
Substitutions are numbered along the chain they refer to. “Also recorded” adds a separate entry of the source. Square brackets hold non-standard residues; d marks the D form. Ends that are not written are not given here. pY = N[C@@H](Cc1ccc(OP(=O)(O)O)cc1)C(=O)O

What was measured:
[1] = target: T1, BRAG2-GluA2 complex (Homo sapiens, UniProt Q6DN90, E620K); experiment: BRAG2-GluA2 pulldown with GSH Sepharose-coupled GST-GluA2 (SDS-PAGE); type: binding
T1 construct: GST-GluA2: E. coli BL21
Method: A. SDS-PAGE gel of the species pulled down with GSH Sepharose-coupled GST-GluA2. On the first lane, only BRAG2 was present in the solution containing the beads. On lanes 2-4 the BRAG2 solution also contained 1 mM of different peptides. B. BRAG2 band intensities from A. normalized to the GS T-GluA2 band intensities.
Samples containing GST-GluA2 (150 μg) and BRAG2 (60 μg) were bound to Sepharose glutathione beads (20 μl). Prior to binding, the beads were washed thoroughly with interaction buffer (25 mM HEPES, 150 mM NaCl, 1 mM MgCl2, 1% Triton™ X-100, 1 mM DTT, pH=7.5). Triton™ X-100 was used to avoid nonspecific binding and to minimize the risk of protein precipitation. In a subsequent step, 3Y at different concentrations was added to the samples (1000 μM, 100 μM, 10 μM, 1 μM, 0.1 μM). A 2.5 mM solution (0.1 M PBS pH=7.4) was obtained. After incubating the samples for 90 minutes at 4 ° C. with stirring, the beads were washed with a buffer containing less Triton X-100 (25 mM HEPES, 150 mM NaCl, 1 mM MgCl2, 0.1% Triton™ X-100.1 mM DTT, pH=7.5). The species which remained trapped by the beads were analyzed by SDS-PAGE (FIG. 16).

[2] = system: scopolamine (0.7 mg/kg)-treated rats; experiment: Elevated plus-maze test; conditions: for number of entries in the open arms vs. Sco-alone treated rats / percentage of the open arms time vs. scopolamine-alone treated rats: peptide 15 μM, Sco 0.7 mg/kg
Method: At the beginning of the experiment, there have been selected 30 adult male rats (Cantacuzino Institute™, Romania) having an average weight of 350 g (±10 g) and four months old. The animals were housed in the animal unit under controlled conditions of light (a 12-h cycle starting at 07:00 h) and temperature (22° C.). Food and water were provided ad libitum throughout the experiment. […] Scopolamine hydrobromide (Sco, 0.7 mg/kg) was administered 30 min before behavioral in vivo approaches.
(§1) All surgical procedures were conducted under aseptic conditions, under sodium pentobarbital (50 mg/kg b.w., i.p., Sigma-Aldrich™, Darmstadt, Germany) anesthesia. Rats were mounted in the stereotaxic apparatus with the nose oriented 11° below horizontal zero plane. Two plastic guide cannulas (Portex™, 0.9 mm outer diameter) were bilaterally implanted stereotaxically in the dorsal hippocampus according to the following coordinates: A/P=3.6 mm, M/L=3.1 mm and D/V=2.4 mm. The cannulas were positioned with dental cement (Adhesor™ SpofaDental™) and secured by three stainless steel screw implanted into the skull. After surgery, the rats were isolated in separate cages and protected with a large spectrum antibiotic. Animals were given two weeks to recover from surgery and were handled daily during this period.
Behavior in the elevated plus-maze test (E.P.M.) is utilized to assess exploration, anxiety and motor behavior. Each rat was placed in the center of the maze facing one closed arm. […] The percentages of time spent in the open arms were calculated using the formula:
(time spent in the open arms/time spent in all arms)×100. • Forced Swimming Test

[3] = target: T2, GST-GluA2-STEP32 C/S complex (Homo sapiens, UniProt P54829, C496S); experiment: GST-GluA2-STEP32 pulldown (SDS-PAGE / western blot); type: binding
T2 construct: made in house; host or cells: STEP32 C/S: E. coli BL21(DE3); GST-GluA2: E. coli BL21
T2 sequence (P54829 282-563 C496S): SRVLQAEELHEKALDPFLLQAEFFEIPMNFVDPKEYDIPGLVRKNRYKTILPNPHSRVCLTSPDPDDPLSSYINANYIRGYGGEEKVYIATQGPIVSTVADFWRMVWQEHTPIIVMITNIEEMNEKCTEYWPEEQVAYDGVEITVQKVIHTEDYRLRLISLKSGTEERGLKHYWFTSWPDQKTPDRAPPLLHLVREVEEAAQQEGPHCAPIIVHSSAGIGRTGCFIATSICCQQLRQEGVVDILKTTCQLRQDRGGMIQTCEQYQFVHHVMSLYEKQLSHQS
Method: Prior to binding and after contacting the beads with phosphorylated GST-GluA2, the beads were washed thoroughly with interaction buffer (25 mM HEPES, 150 mM NaCl, 1 mM MgCl2, 1% Triton™ X-100, 1 mM DTT, pH=7,5). Triton™ X-100 was used to avoid nonspecific binding and to minimize the risk of precipitation for any of the proteins. […] Beads were washed twice with wash buffer to remove excess STEP32 C/S. Results were analyzed using SDS-PAGE (FIG. 2A).

[4] = system: scopolamine (0.7 mg/kg)-treated rats; experiment: Forced swimming test
Method: At the beginning of the experiment, there have been selected 30 adult male rats (Cantacuzino Institute™, Romania) having an average weight of 350 g (±10 g) and four months old. The animals were housed in the animal unit under controlled conditions of light (a 12-h cycle starting at 07:00 h) and temperature (22° C.). Food and water were provided ad libitum throughout the experiment. Rats were randomly divided into 6 groups (n=5 animals/group) as follows: Control group (sham-operated), Scopolamine (Sco) group (sham-operated, Sco: 0,7 mg/kg b.w., i.p., Sigma-Aldrich™, Darmstadt, Germany), and groups treated with TAT-p3Y, TAT-3Y, TAT-p3Ysh3, and TAT-pfin4 (15pIVI, GenScript™) received scopolamine. The doses of the peptides were chosen according to a previous report [60]. Scopolamine hydrobromide (Sco, 0.7 mg/kg) was administered 30 min before behavioral in vivo approaches. […]
The forced swimming test (F.S.T.) is used for assessing depressive-like responses [66]. The depressive-like response was assessed, basically using the same method described by Campos
et al. [67], but with modifications. […] During the test session, the following behavioral responses were recorded: (i) immobility (time spent floating with the minimal movements to keep the head above the water); and (ii) swimming (time spent with active swimming movements). • Statistical Analyses

[5] = system: scopolamine (0.7 mg/kg)-treated rats; experiment: Y-maze test, scopolamine-induced cognitive impairment; conditions: peptide 15 μM; Sco 0.7 mg/kg
Method: (§2) At the beginning of the experiment, there have been selected 30 adult male rats (Cantacuzino Institute™, Romania) having an average weight of 350 g (±10 g) and four months old. The animals were housed in the animal unit under controlled conditions of light (a 12-h cycle starting at 07:00 h) and temperature (22° C.). Food and water were provided ad libitum throughout the experiment. Rats were randomly divided into 6 groups (n=5 animals/group) as follows: Control group (sham-operated), Scopolamine (Sco) group (sham-operated, Sco: 0,7 mg/kg b.w., i.p., Sigma-Aldrich™, Darmstadt, Germany), and groups treated with TAT-p3Y, TAT-3Y, TAT-p3Ysh3, and TAT-pfin4 (15pIVI, GenScript™) received scopolamine. […] Scopolamine hydrobromide (Sco, 0.7 mg/kg) was administered 30 min before behavioral in vivo approaches.
as §1
Spontaneous alternation behavior was evaluated in a single-session Y-maze, as previously described by Jackson Postu et al [63]. In the present study, the Y-maze used was built of Plexiglas having the following dimensions: 25 cm high, 35 cm long, 10 cm wide for each arm, and a central area in an equilateral triangular shape. […] The percentage of the involuntary alternation was determined according to the formula:

[6] = system: scopolamine (0.7 mg/kg)-treated rats; experiment: Radial arm-maze test, scopolamine-induced cognitive impairment; conditions: for number of working memory errors vs. scopolamine-alone treated rats: peptide 15 μM into dorsal hippocampus; for number of working memory errors vs. scopolamine-alone treated rats / number of reference memory errors vs. scopolamine-alone treated rats: Sco 0.7 mg/kg; for number of reference memory errors vs. scopolamine-alone treated rats: peptide 15 μM
Method: as §2, §1
As described before by Olton and Samuelson and Postu et al [63], using a radial arm maze test (RAM), the spatial memory was determined for one week.
The maze comprised eight arms marked from 1 to 8 (48 cm×12 cm), with a radial extension of 32 cm in diameter from the central area, and it had 50 mg food pellets at the end of arms 1, 2, 4, 5, and 7. Four days of habituation sessions were performed. Rats were instructed to move to the end of the arms and to eat the bait during 5 min sessions. After habituation, only one trial per day was granted to all rats. For working and reference memory tasks, each rat was individually placed in the center of the maze.

[7] = target: T3, STEP32 WT (Homo sapiens, UniProt P54829); experiment: In vitro dephosphorylation of pY876 of full length GluA2 by STEP32 WT (western blot)
T3 sequence (P54829 282-563): T2 sequence (P54829 282-563 C496S) with S215C
Description: GluA2-FL phosphorylated at Y876 site was immunoprecipitated from HEK293T cells overexpressing GluA2 and vSrc using anti-GluA2 antibodies and then submitted to in vitro dephosphorylation by purified STEP32 WT, in presence versus absence of TAT-phosphopeptides: TAT-p3Y, TAT-p3Y-sh3 and TAT-p-fin4. The dephosphorylation of the pY876 site of GluA2 FL was detected by western blotting using anti-pY876 antibodies and anti-GluA2 antibodies.
The results represent mean±SEM of three independent experiments.
Therefore, HEK293 cells were transfected with a pCMV-SPORT6-GRIA2 mammalian expression vector containing the cDNA of full length GluA2 (GluA2-FL). […] A sample consisting of immunoprecipitated GluA2 FL untreated with either STEP32 or peptides was also included into the study, as a control.

T1 sequence (Q6DN90 with tags, fused parts or gaps E620K): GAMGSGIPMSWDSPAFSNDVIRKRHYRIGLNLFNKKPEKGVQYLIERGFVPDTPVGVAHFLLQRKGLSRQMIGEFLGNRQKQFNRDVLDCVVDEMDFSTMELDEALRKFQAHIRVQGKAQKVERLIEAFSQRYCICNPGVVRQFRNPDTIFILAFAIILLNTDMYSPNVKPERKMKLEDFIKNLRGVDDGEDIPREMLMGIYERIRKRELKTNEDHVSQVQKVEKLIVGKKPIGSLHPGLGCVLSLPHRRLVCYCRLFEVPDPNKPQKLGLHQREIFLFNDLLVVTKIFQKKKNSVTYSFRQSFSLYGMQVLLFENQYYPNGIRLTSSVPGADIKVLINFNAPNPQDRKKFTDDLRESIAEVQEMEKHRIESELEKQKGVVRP

Substance	inhibition of formation of the GST-GluA2-STEP32 C/S complex [3]	spontaneous alternation percentage / working memory vs. scopolamine alone [5]	number of working memory errors vs. scopolamine-alone treated rats [6]	number of entries in the open arms vs. Sco-alone treated rats [2]	percentage of the open arms time vs. scopolamine-alone treated rats [2]	number of reference memory errors vs. scopolamine-alone treated rats [6]	further results
ATYKEGYNVYG (not fully specified (residue 10)) [3Y, reference compound]							disruption of the BRAG2-GluA2 complex ([1]; 3Y in the range of concentrations 10 μM-1 mM): successfully disrupts the BRAG2-GluA2 complex; p, Sco vs. peptide, open arms time % ([2]; 15 μM, Tukey's post hoc, n=5, FIG. 13): < 0.001
(TAT-)p3Y: p3Y N-terminally fused to the TAT cell-penetrating sequence GRKKRRQRRRPQ [reference compound]	significantly inhibit the interaction	successfully countered the effect of scopolamine on working-memory	significant reduction in the number of working memory errors				p, Sco vs. peptide, immobility time ([4]; 15 μM, Tukey's post hoc, n=5, FIG. 12): < 0.0001; immobility time ([4]; peptide 15 μM, Sco 0.7 mg/kg): significant decline of the immobility time; p, Sco vs. peptide, number of reference memory errors ([6]; 15 μM, Tukey's post hoc, n=5, FIG. 10): < 0.01
(TAT-)p-fin 4: p-fin4 (EGYNVpYE) N-terminally fused to the TAT cell-penetrating sequence (GRKKRRQRRRPQEGYNV[pY]E)	strongest inhibitory effect; also recorded: significantly inhibit the interaction	successfully countered the effect of scopolamine on working-memory	significant reduction in the number of working memory errors	high number of entries in the open arms	high percentage of the open arms time	significant reduction in the number of reference memory errors	inhibition of pY876 GluA2-FL dephosphorylation by STEP32 WT ([7]; 0.1 mM and 1 mM peptide): highest inhibition of GluA2 dephosphorylation; P, no peptide sample vs. peptide + STEP32 WT sample, pY876 band intensity ([7]; 1 mM peptide, unpaired t-test with Welch's correction): < 0.05
EGYNVY (Interference peptide capable of inhibiting the formation/disrupting the STEP-GluA2 complex or the GluA2-BRAG2 complex) [3Y-sh3, (uncoupled) novel 3Y-sh3 peptide, non-phosphorylated hexapeptide]							effect on the GST-GluA2-BRAG2 complex ([1]; 1 mM peptide (FIG. 17)): significant disrupting effect
(TAT-)p3Y-sh3: p3Ysh-3 (EGYNVpY) N-terminally fused to the TAT cell-penetrating sequence (GRKKRRQRRRPQEGYNV[pY])	significantly inhibit the interaction	successfully countered the effect of scopolamine on working-memory	significant reduction in the number of working memory errors	high number of entries in the open arms	high percentage of the open arms time	significant reduction in the number of reference memory errors	
